# Reference: patent US20040167111A1, “Pharmaceutical preparations for treating side effects during and/or after GnRHa therapy” (priority 1998, published 2004)
# Experiments:
# prostate of male rats = experiment: Model study in male rats: moisture content of the prostate after 21 days; format: in vivo
# Protocol: (§1) A model study was performed in which both 17β-estradiol and 14α,15α-methylene-1,3,5(10),8-tetraene-3,17α-diol were administered to male rats. The purpose of this study was to compare the extent of the undersirable side effects produced in males (in this case male rats as a model) that are produced by administration of an estrogen, namely 17β-estradiol, and by 14α, 15α-methylene-1,3,5(10),8-tetraene-3,17α-diol, an effective ingredient of the present invention.
# (§2) Respective amounts of 17β-estradiol and 14α,15α-methylene-1,3,5(10),8-tetraene-3,17α-diol equivalent to 0.04 mg/kg body weight were administered over a 21 day period to the male rats in corresponding groups of male rats. These amounts were administered daily over the 21 day period to individual male rats subcutaneously. Eight male rats were in each group.
# (§3) The moisture content in the prostate and seminal vesicles of each tested male rat was measured at the end of the 21 day test period. The experimental error estimate is shown with the “T” at the top of each bar in the respective bar graphs.
# [1] = tested on: seminal vesicles of male rats; experiment: Model study in male rats: moisture content of the seminal vesicles after 21 days; format: in vivo
# Protocol: as §1, §2, §3
# [2] = tested on: female test subjects treated with Decapeptyl-Depot for endometriosis; experiment: Clinical study in women with endometriosis under GnRHa therapy (Decapeptyl-Depot); format: in vivo, human
# Protocol: Here clinical studies in women with endometriosis are reported.
# (§4) The effectiveness of injected Decapeptyl-Depot (Ferring Arzneimittel GmbH, Kiel, Germany) in a dose of 3.2 mg of Triptorelin intramuscularly at intervals of four weeks and 1 to 2 mg of 14α,15α-methylene-1,3,5(10),8-tetraene-3,17α-diol daily, given in the form of a vaginal suppository of 1 mg of 14α,15α-methylene-1,3,5(10),8-tetraene-3,17α-diol each, was tested in fourteen female test subjects aged 22 to 38, who were being treated with Decapeptyl-Depot for endometriosis for at least six months.
# The treatment with 14α,15α-methylene-1,3,5(10),8-tetraene-3,17α-diol was begun four weeks after the beginning of GnRHa therapy, that is, at the time of the second Decapeptyl injection.
# Hot flashes were recorded by the subjects daily on a control form laid out for a 24-hour day, beginning with the first day of Decapeptyl therapy.
# The mean number of hot flashes per 24 hours in weeks 3 and 4 of the GnRHa treatment (that is, before the beginning of the 14α,15α-methylene-1,3,5(10),8-tetraene-3,17α-diol therapy) was assumed to be 100%, for the sake of better comparability. The number of hot flashes during additional therapy with 14α,15α-methylene-1,3,5(10),8-tetraene-3,17α-diol was indicated as a percentage of the starting value. For five subjects, a measurement of skin temperature over 24 hours was done, for the sake of objectivity.
# At intervals of four weeks, immediately prior to the injection of Decapeptyl-Depot, blood was drawn to determine LI-I, FSH, prolactin, testosterone, DHEAS, SHBG, free testosterone, estradiol, and progesterone. Blood specimens were also taken for determining a simple blood count, SGOT, SGPT, creatinine, Na, K, Ca, albumin, glucose and CA 125.
# For long-term treatment, bone density was monitored at intervals of 6 to 12 months. In seven subjects, trials of withdrawal from 14α,15α-methylene-1,3,5(10),8-tetraene-3,17α-diol over 4 to 8 weeks each were done.
# [3] = tested on: test subjects with fibroid tumors of the uterus; experiment: Clinical study in women with fibroid tumors of the uterus under GnRHa therapy; format: in vivo, human
# Protocol: as §4
# Test subjects aged 22 to 46 with fibroid tumors of the uterus were given the same doses.
# [4] = tested on: males with prostate-Ca under GnRHa therapy; experiment: Observation in males with prostate-Ca under GnRHa therapy; format: in vivo, human
# [5] = tested on: female test subjects treated with Decapeptyl-Depot for endometriosis; experiment: Clinical study in women with endometriosis under GnRHa therapy (Decapeptyl-Depot); format: in vivo, human; remark: listed apart in the source
structure (smiles),measurement,setting,value
"C[C@]12CC[C@@H]3c4ccc(O)cc4CC[C@H]3[C@@H]1CC[C@@H]2O [estradiol, 17β-estradiol, reference compound]",proliferation effect in the prostates (increase in the moisture content),"prostate of male rats; rat, in vivo, sc, 0.04 mg/kg",comparatively large proliferation effect
same,undesirable estrogen side effects,"prostate of male rats; rat, in vivo, sc, 0.04 mg/kg",estrogen side effects of course result
same,proliferation effect on the seminal vesicles (increase in the moisture content),"[1]; rat, in vivo, sc, 0.04 mg/kg",comparatively large proliferation effect
"C[C@]12CCC3=C(CCc4cc(O)ccc43)[C@@]13C[C@H]3C[C@H]2O [14α,15α-methylene-1,3,5(10),8-tetraene-3,17α-diol]",proliferation effect in the prostates (increase in the moisture content),"prostate of male rats; male rats, 0.04 mg/kg body weight subcutaneously daily over 21 days, FIG. 1",scarcely any proliferation effect
same,undesirable estrogen side effects,"prostate of male rats; male rats, prostate and seminal vesicles, 0.04 mg/kg s.c. daily 21 days",no undesirable estrogen side effects
same,proliferation effect on the seminal vesicles (increase in the moisture content),"[1]; male rats, 0.04 mg/kg body weight subcutaneously daily over 21 days, FIG. 2",no profileration effect
same,bleeding,[2]; 1 to 2 mg daily as vaginal suppository in addition to Decapeptyl-Depot,No bleeding occurred
same,"values for LH, FSH, prolactin, testosterone, DHEAS, SHBG, estradiol, and progesterone",[2]; 1 to 2 mg daily vaginal suppository in addition to Decapeptyl-Depot,remained low and unchanged
same,Ca 125 values,[2]; add-on to Decapeptyl-Depot,did not rise
same,body weight,[2]; add-on to Decapeptyl-Depot,no change
same,intracyclic bleeding,[2]; add-on to Decapeptyl-Depot,No intracyclic bleeding occurred
same,"liver values, blood count or electrolytes",[2]; add-on to Decapeptyl-Depot,No changes
same,endometriosis-specific complaints,[2]; during the treatment,did not recur
same,bone density,"[2]; over one year, four subjects monitored",did not change significantly
same,blood pressure,"[2]; subjects with borderline RR (n=4, RR around 140/80)",around 110/70
same,hot flashes in withdrawal trial,"[2]; withdrawal over 4 to 8 weeks, seven subjects","increase in hot flashes, within three weeks back to the starting values"
same,course of the decrease in uterine volume versus subjects not receiving the compound,[3]; Decapeptyl-Depot plus add-on,identical
same,influence on the effect of the GnRHa therapy on the lower organs,[3]; supplementary treatment,did not influence
same,uterus size,"[3]; within three months, Decapeptyl-Depot plus add-on",40±10 % of the starting value
same,hot flashes tripped by GnRHa therapy,[4],same result
same,complaints of undesirable estrogen-related side effects,[5]; all subjects,complaint-free
same,hot flashes tripped by GnRHa therapy,"[5]; treated females, endometriosis or fibroid tumors of the uterus",effectively eliminated
